Source: publication PMC13100289 (The Journal of Biological Chemistry, 2026)

Target: T1, Neutral endopeptidase (neprilysin) (Homo sapiens, UniProt P08473)
T1 construct: purchased; host or cells: CHO cells
Assay: Metalloprotease selectivity panel (Eurofins Panlabs): neprilysin
Type: biochemical
Conditions: assay validation, read-out: IC50 of reference inhibitor
Excerpt: Supplementary Table S1. […] Reference compounds were used to validate the assay for inhibition.

T1 sequence (P08473 whole entry): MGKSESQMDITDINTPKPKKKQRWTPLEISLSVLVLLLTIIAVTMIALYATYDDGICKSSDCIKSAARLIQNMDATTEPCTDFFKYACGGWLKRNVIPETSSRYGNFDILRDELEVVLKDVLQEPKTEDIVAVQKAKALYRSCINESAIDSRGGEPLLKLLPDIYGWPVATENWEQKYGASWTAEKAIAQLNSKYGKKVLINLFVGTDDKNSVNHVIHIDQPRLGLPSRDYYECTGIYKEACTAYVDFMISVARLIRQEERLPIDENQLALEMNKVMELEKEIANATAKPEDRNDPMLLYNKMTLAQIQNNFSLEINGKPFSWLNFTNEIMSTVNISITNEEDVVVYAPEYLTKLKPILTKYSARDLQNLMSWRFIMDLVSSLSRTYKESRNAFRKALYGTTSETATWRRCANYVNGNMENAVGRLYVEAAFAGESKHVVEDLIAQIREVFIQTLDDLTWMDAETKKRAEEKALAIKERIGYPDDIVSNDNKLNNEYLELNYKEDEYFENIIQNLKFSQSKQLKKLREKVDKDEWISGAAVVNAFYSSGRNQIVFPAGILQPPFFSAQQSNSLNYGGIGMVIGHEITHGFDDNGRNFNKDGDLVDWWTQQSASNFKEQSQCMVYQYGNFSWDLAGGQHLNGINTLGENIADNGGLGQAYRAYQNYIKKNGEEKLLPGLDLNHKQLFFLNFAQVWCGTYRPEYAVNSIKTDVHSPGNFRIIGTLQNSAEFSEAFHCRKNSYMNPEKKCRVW

`CC(C)C[C@H](NP(=O)(O)O[C@@H]1O[C@@H](C)[C@H](O)[C@@H](O)[C@H]1O)C(=O)N[C@@H](Cc1c[nH]c2ccccc12)C(=O)O` [Phosphoramidon] showed an IC50 of 1.99 nM.
